Here are results for four compounds from article PMC12057359, “Inhibitory effect of copper chelators on the budding in Candida albicans” (Antimicrobial Agents and Chemotherapy, 2025).

Structures can show the parent of a compound that is named as a salt. Where two headings read alike, the source gives them in different places. Numbered stars: 1 amine (or outer) side, 2 acyl side, 3 side chain; on linkers, the order of the positions; unused ones are H or OH. Bridge positions count the residues as written; N and C are the ends. Square brackets hold non-standard residues; d marks the D form. Peptide text beside a SMILES is read from it. * marks the point of attachment. hTyr(3S-OH,4S-OH,3'-OSO3H) = N[C@H](C(=O)O)[C@H](O)[C@@H](O)c1ccc(O)c(OS(=O)(=O)O)c1; Orn(4R-OH,5R-OH) = O=C([C@H](C[C@@H](O)[C@@H](O)N[*:3])N[*:1])[*:2]; Pro(3S-OH,4S-Me) = C[C@H]1CN[C@H](C(=O)O)[C@H]1O; X1 = CCCCCOc1ccc(-c2cc(-c3ccc(C(=O)*)cc3)no2)cc1; Gln(3R-OH) = NC(=O)C[C@@H](O)[C@H](N)C(=O)O; Hyp = O=C(O)[C@@H]1C[C@@H](O)CN1 Where only a bound is given, the exact number is not on record here.

The test system of series [1] is C. albicans JCM1542. Kind of series: iHOPE antimicrobial microdilution assay (turbidity OD600). Particulars: for IC50: read-out: IC50 against C. albicans JCM1542. It counts as cell-based, Candida albicans. On the technique in general: Broth dilution looks for growth in wells or tubes with falling amounts of substance.
The subject of the next series is A. fumigatus Af293. Kind of series: iHOPE antimicrobial microdilution assay. It counts as cell-based, Aspergillus fumigatus.
The test system of a further series is P. oryzae Kita-1. Kind of series: microbe, parasite or virus in culture. The format is cell-based, Pyricularia oryzae.
The test system of a further series is S. aureus 209P. Kind of series: iHOPE antimicrobial microdilution assay. The format is cell-based, Staphylococcus aureus. To be noted: read-out: IC50 against S. aureus 209P.
Another series deals with E. coli HO-141. The experiment in a line: iHOPE antimicrobial microdilution assay. It counts as cell-based, Escherichia coli.
For a further series, the system named is HL-60 RCB0041. The experiment in a line: iHOPE in vitro cytotoxicity assessment (Cell Count Reagent SF). It counts as cell-based, human.
Series [2] concerns C. albicans JCM1542. The format is cell-based, Candida albicans.
For series [3], the system named is C. glabrata JCM3761. The experiment in a line: iHOPE antimicrobial microdilution assay (turbidity OD600). It counts as cell-based, Candida glabrata. To be noted: Nakaseomyces glabratus, read-out: IC50 against C. glabrata JCM3761.
For another series, the system named is C. tropicalis JCM1541. The description is as above. The format is cell-based. Particulars: Candida tropicalis, read-out: IC50 against C. tropicalis JCM1541.
The next series has as its system C. auris Ci6684. The series is described as above. It counts as cell-based, Candida auris. To be noted: Candidozyma auris, read-out: IC50 against C. auris Ci6684.
The next series has as its system C. auris VPCI673. Described as above. It counts as cell-based, Candida auris. To be noted: Candidozyma auris, read-out: IC50 against C. auris VPCI673.
Series [4] in a line: iHOPE in vitro cytotoxicity assessment (Cell Count Reagent SF). It counts as cell-based, human. Particulars: human.
Method: (§5) The method for in vitro cytotoxicity assessment using Cell Count Reagent SF (Nacalai Tesque) has been described previously ([15]). […] Test compounds were added to the culture medium, and then the plates were incubated at 28°C for 24 h.
Series [5] relates to C. glabrata JCM3761. The experiment in a line: Intracellular ATP measurement (BacTiter-Glo). It counts as cell-based, Candida glabrata. To be noted: C. glabrata JCM3761, 6 h, dose range 0.010–0.3 µM. As to the method:
(§1) Intracellular ATP measurement
(§2) Intracellular ATP levels were examined using the protocol outlined in a previous study (27). C. glabrata JCM3761 was precultured overnight in YPD medium [1% yeast extract (Thermo Fisher Scientific), 2% peptone (NIHON PHARMACEUTICAL, Osaka, Japan), and 2% D-glucose]. A 200-µL inoculum suspension containing 0.1% of a 0.5 McFarland standard suspension was prepared and seeded into a 96-well plate. […] The luminescence was recorded using a Varioskan LUX Multimode Microplate Reader.
(§3) Reactive oxygen species (ROS) measurement
(§4) ROS levels were examined using the method described in a previous paper (27). The overnight preculture of C. albicans JCM1542 was washed and resuspended in 5 mL of PBS buffer. 2’,7’- dichlorodihydrofluorescein diacetate (DCFH-DA; Cayman Chemical, MI, US) was added at a concentration of 50 µM. After incubation at 28 °C for 30 min, the fungi were washed three times with PBS buffer to remove the residual extracellular dye and seeded at a density of 1×10^6 cells/well in 50 µL of PBS, followed by the sample addition. After 60 min of incubation, the fluorescence intensity (excitation wavelength/emission wavelength = 485/535 nm) was measured using Varioskan LUX Multimode Microplate Reader.

Series [6] concerns C. albicans JCM1542. The experiment in a line: Reactive oxygen species (ROS) measurement (DCFH-DA). The format is cell-based, Candida albicans. Particulars: 60 min, dose range 0.010–0.3 µM. As to the method: as §1, §2, §3, §4
The next series concerns C. albicans IFO1601. The arrangement: method as in earlier work. Particulars: cited from earlier work.
Where [7] appears, read: Candida albicans, JCM1542, 24 h.
Where [8] appears, read: Aspergillus fumigatus, AF293, read-out: IC50 against A. fumigatus Af293.
Setting [9] is: Pyricularia oryzae, KITA1, read-out: IC50 against P. oryzae Kita-1.
[10] abbreviates: Escherichia coli, HO141, read-out: IC50 against E. coli HO-141.
Setting [11] is: SD in parentheses, n = 3, read-out: IC50 against HL-60 RCB0041 (cytotoxicity).

Method for HL-60 RCB0041: as §5

Consider `[Cl][Cu][Cl]` [Cu^2+, copper chloride (II)], for which the IC50 (in general, the point on the concentration scale where inhibition reaches its midpoint) is more than 30 µM in the series with C. albicans JCM1542 [1] (MOPS-RPMI medium, 28°C, 24 h, OD600, standard deviation in parentheses, n = 3); more than 30 µM in the series on A. fumigatus Af293 (SD in parentheses, n = 3, read-out: IC50 against A. fumigatus Af293); more than 30 µM in the series on P. oryzae Kita-1 (SD in parentheses, n = 3, read-out: IC50 against P. oryzae Kita-1); more than 30 µM with S. aureus 209P (SD in parentheses, n = 3); more than 30 µM in the series on E. coli HO-141 (SD in parentheses, n = 3, read-out: IC50 against E. coli HO-141); more than 30 µM in the series with HL-60 RCB0041. Moreover, in the series on C. albicans JCM1542 [2], the “concentration leading to earlier budding of C. albicans” value was not below 1 µM.

For the compound `CCCCCOc1ccc(-c2cc(-c3ccc(C(=O)N[C@H]4C[C@@H](O)[C@@H](O)NC(=O)[C@@H]5[C@@H](O)[C@@H](C)CN5C(=O)[C@H]([C@H](O)CC(N)=O)NC(=O)[C@H]([C@H](O)[C@@H](O)c5ccc(O)c(OS(=O)(=O)O)c5)NC(=O)[C@@H]5C[C@@H](O)CN5C(=O)[C@H]([C@@H](C)O)NC4=O)cc3)no2)cc1` [Micafungin, micafungin] (X1-[Orn(4R-OH,5R-OH)]T[Hyp][hTyr(3S-OH,4S-OH,3'-OSO3H)][Gln(3R-OH)][Pro(3S-OH,4S-Me)]; lactam 1-C), the IC50 with C. albicans JCM1542 [1] (setting [7]) was 0.0033 µM; in the series with C. glabrata JCM3761 [3] (JCM3761, 24 h), 0.0049 µM; in the series with C. tropicalis JCM1541 (JCM1541, 24 h) it was 0.0054 µM; in the series with C. auris Ci6684 (CI6684, 24 h), 0.029 µM; with C. auris VPCI673 (VPCI673, 24 h), 0.027 µM; in the series with A. fumigatus Af293 (setting [8]), 0.004 µM. Moreover, the IC50 in the series on P. oryzae Kita-1 (setting [9]) was more than 30 µM; in the series on S. aureus 209P (Staphylococcus aureus, 209P), more than 30 µM; with E. coli HO-141 (setting [10]), more than 30 µM; in [4] (setting [11]) it was more than 30 µM. Also, the “morphological change induced in C. albicans” value (“morphological change induced” for short) in the series on C. albicans JCM1542 [2] (C. albicans JCM1542, MOPS-RPMI medium, 24 h) is on record as “yeast-rich morphology”.

Consider `[C-]#[N+][C@H](C)CC(=O)NC[C@@H]1CC[C@H](NC(=O)C[C@@H](C)[N+]#[C-])C(O)O1` (stereo partly drawn) [SF2768], for which, in the series on C. albicans JCM1542 [1] (0.03 µM SF2768, metal chlorides, 24 h), the “effect of excessive amounts of other metal ions (iron, zinc, manganese, magnesium) on the activity” value is “did not affect the activity”. Moreover, the IC50 worked out at 0.01 µM in the series with C. albicans JCM1542 [1] (setting [7]); 0.0054 µM with C. glabrata JCM3761 [3] (JCM3761, 24 h); 0.013 µM with C. tropicalis JCM1541 (JCM1541, 24 h); 0.02 µM in the series with C. auris Ci6684 (CI6684, 24 h); 0.049 µM in the series with C. auris VPCI673 (VPCI673, 24 h); 0.12 µM in the series on A. fumigatus Af293 (setting [8]). The IC50 was more than 30 µM with P. oryzae Kita-1 (setting [9]); 0.5 µM with S. aureus 209P (Staphylococcus aureus, 209P); more than 30 µM with E. coli HO-141 (setting [10]); more than 30 µM in series [4] (setting [11]). Moreover, the selectivity index in the series on C. albicans JCM1542 [1] (HL-60 cytotoxicity versus C. albicans IC50) is reported as > 3,000. Besides, in the series on HL-60 RCB0041 (up to / at 30 µM), the “cytotoxicity to HL-60 cells (in words)” value is reported as “without any cytotoxicity”. In addition, the “effect on farnesol-induced yeast growth of C. albicans” value in the series on C. albicans JCM1542 [2] is “clearly inhibited this effect”. In the series on C. albicans JCM1542 [2], the “morphological change induced” value was “few branching or lateral yeasts were observed, and only minimal hyphal growth was observed”. The “concentration at which the hyphal form of C. albicans was predominant” value with C. albicans JCM1542 [2] (C. albicans JCM1542) is recorded as not below 0.030 µM. For the same compound, in the series on C. glabrata JCM3761 [5], the “intracellular level of ATP” value is “did not alter the amount”. Besides, the “intracellular level of reactive oxygen species (ROS)” value in the series on C. albicans JCM1542 [6] is recorded as “did not alter the amount”. Also, the “zone of inhibition against C. albicans IFO1601” value with C. albicans IFO1601 is recorded as “faint zone of inhibition”.

For the compound `NCCNCCNCCN` [Trientine, trientine hydrochloride], the IC50 with C. albicans JCM1542 [1] (Candida albicans, JCM1542, MOPS-RPMI medium, 28°C, 24 h, OD600, standard deviation in parentheses, n = 3) is 0.57 µM; in the series with C. glabrata JCM3761 [3] (JCM3761, MOPS-RPMI medium, 24 h, SD in parentheses, n = 3) it was 0.12 µM; with C. tropicalis JCM1541 (JCM1541, MOPS-RPMI medium, 24 h, SD in parentheses, n = 3) it was 18 µM; in the series with C. auris Ci6684 (CI6684, MOPS-RPMI medium, 24 h, SD in parentheses, n = 3) it was more than 100 µM; in the series with C. auris VPCI673 (VPCI673, MOPS-RPMI medium, 24 h, SD in parentheses, n = 3), more than 100 µM; in the series with A. fumigatus Af293 (Aspergillus fumigatus, AF293, SD in parentheses, n = 3, read-out: IC50 against A. fumigatus Af293), 8.1 µM. Also, the IC50 with P. oryzae Kita-1 (setting [9]) is more than 100 µM; with S. aureus 209P (Staphylococcus aureus, 209P, SD in parentheses, n = 3), more than 100 µM; in the series on E. coli HO-141 (Escherichia coli, HO141, SD in parentheses, n = 3, read-out: IC50 against E. coli HO-141), more than 100 µM; in series [4] it was more than 100 µM. The “morphological change induced” value in the series with C. albicans JCM1542 [2] is on record as “morphological changes similar to those observed with SF2768”.
